# Data taken from patent US9497963B2, “Methods and compositions for control of gypsy moth, Lymantria dispar” (Simon Fraser University, priority 2008, dated 2016).
# Where two headings read alike, the source gives them in different places. Marks after values point to notes of the source that are not given here.
# Tests used:
# male gypsy moth antenna = test: Coupled gas chromatographic-electroantennographic detection (GC-EAD); design: species or system Lymantria dispar; conditions: EAD peak size and shape (sharp/broad)
# Text: In GC-EAD assays, the analyte is processed by gas chromatography (GC). The column effluent is split, such that molecules of each chromatographic peak arrive simultaneously at the flame ionization detector of the GC and at an anectomized but otherwise intact insect antenna as the biological detector. This procedure detects specific compounds in the analyte that elicit an electrical potential from the antenna.
# For GC-EAD recordings, an antenna was carefully dislodged from a male moth's head, and the antennal base placed into the opening of a glass capillary electrode (0.58 mm ID×65 mm length) (A-M Systems, Inc., Carlsborg, Wash., USA) filled with saline solution. The tip of the antenna was removed by spring microscissors (Fine Science Tools Inc., North Vancouver, British Columbia, Canada) and then placed into the opening of the recording electrode mounted on a portable micromanipulator and positioned in front of a constant stream of warm air (Praxair Canada Inc., Mississauga, Ontario, Canada) which delivered the GC column eluent. […] Identical retention times of compounds detected by the flame ionization detector of the GC and by the insect antenna allowed assignment of antennal responses to specific compounds in the eluent.
# [1] = system: male gypsy moth antenna response to pheromone (+)-1; test: EAG short-term (STI) and long-term (LTI) inhibition of pheromone signaling (Example 5); design: species or system Lymantria dispar; conditions: for inhibition at 0.001 mg / inhibition at 0.01 mg / inhibition at 0.1 mg / inhibition at 100 µg, 0.1 mg: Lymantria dispar; for inhibition at 0.001 mg / inhibition at 0.01 mg / inhibition at 0.1 mg / Activity (%): short-term inhibition (STI): negative = enhancement; for inhibition at 0.001 mg / inhibition at 0.01 mg / inhibition at 0.1 mg: read-out: Activity (%): short-term inhibition (STI); for inhibition at 100 µg, 0.1 mg: read-out: Activity (%): long-term inhibition (LTI)
# Protocol: The puffs are numbered i-vi and were: i=air, ii=pure pheromone (+)-disparlure, (+)-1, (100 ng), iii-v=disparlure mixed with the test compound, the latter at three different doses, vi=pure (+)-1. Depolarizations from the resting potential are labeled d; hyperpolarizations seen during the recovery phase after a puff are labeled r. Subscripts refer to the puff number. FIG. 5A. Typical trace for compound 3c{2,3}. FIG. 5B. Typical trace for compound 3a{4,4}.
# For other compounds, EAG traces were recorded as follows: a fully dislodged antenna from a male gypsy moth was mounted on the end of a reference electrode (a glass capillary with a silver wire, filled with buffered saline: 5 mM NaH2PO4, 10 mM Na2SO4, 4.5 mM KHCO3, 18 mM MgCl2, 4 mM CaCl2, 6 mM KCl, the pH is adjusted to 6.8 using 5 mM Na2HPO4). The tip of the antenna was severed with microscissors and placed in the recording electrode, which was mounted on a micromanipulator. A constant stream of air, that had been purified (charcoal filter), was blown over the antenna at a rate of 300 mL/min. Test samples were delivered through a stimulus delivery tube with a side opening 2 cm from the distal opening. The proximal end of the delivery tube was connected to a controlled stimulus delivery apparatus (Stimulus controller CS-05 Syntech Research and Equipment, NL 1200BM, Hilversum, The Netherlands). The distal end of the delivery tube pointed at the antenna (1 cm from the antenna). The side opening was connected to a cartridge fashioned from a Pasteur pipette which contained a small filter paper (Whatman No. 1) with the stimulus. These pipette cartridges could be prepared a few days in advance and stored at −80° C. wrapped in Al foil and in sealable plastic bags. Sample cartridges were mounted once they had reached room temperature. The stimulus delivery apparatus delivered a second stream of air (a puff) through the Pasteur pipette at a velocity of 600 mL/min, at a specified point in time, for 0.3 s. Receptor potentials of the antennae in response to test stimuli were recorded with a Syntech IDAC probe, amplifier and interfaced board, and were analyzed with EAG Syntech Software Version 2.4 (1996). See FIG. 4 for a representative EAG trace. The EAG traces were evaluated as follows (see FIG. 5).
# The net depolarizations, d(net) (in mV), of puffs ii-vi,d(sample), (corrected for the depolarization with clean air, d(air)) d(net)=d(sample)−d(air) (Eq. 1)
# The percentage short-term inhibition for each compound (STI(compound)) of puffs iii-v, relative to the first pure pheromone puff (ii) STI(compound)=100×(d(net)(ii)−d(net)(compound))/d(net)(ii) (Eq. 2)
# c) the percentage long-term inhibition for each compound (LTI(compound)) of the pure pheromone puff that followed the last mixed puff (vi) relative to the first pure pheromone puff (ii) LTI(compound)=100×(d(net)(ii)−d(net)(vi))/d(net)(ii) (Eq. 3)
# The compounds we tested gave weak or no olfactory responses by themselves in electroantennogram (EAG) experiments. The EAG trace reflects the change in the potential across the antenna when an air puff with an odorant is passed over the antenna. To understand the agonistic or antagonistic effect of the compounds on pheromone responses by male moth antennae, four types of EAG experiment were conducted. First, the response of the antenna elicited by a stimulus of pure (+)-1 was compared to the responses elicited by blends of (+)-1 with the test compound (FIG. 5). […] This effect was termed short-term inhibition (STI). […] Second, the time decay and dose responses for LTI activities were studied. Third, the strongest inhibitors were tested for their ability to cause LTI by themselves.
# This experiment explored the agonistic or antagonistic activity of the synthetic aromatic compounds (Scheme 1 and eugenol and alkyl eugenols) with the gypsy moth pheromone (+)-1. […]
# [2] = mixed plume (+)-1 100 ng + compound 1 μg, mean ± S.E.
# [3] = mixed plume (+)-1 100 ng + compound 10 μg, mean ± S.E.
# [4] = mixed plume (+)-1 100 ng + compound 100 μg (puff v), mean ± S.E.
# [5] = pure (+)-1 100 ng plume following mixed plume with 100 μg compound, mean ± S.E.
SMILES,GC-EAD activity (male gypsy moth antenna),"inhibition at 0.001 mg [1, 2]","inhibition at 0.01 mg [1, 3]","inhibition at 0.1 mg [1, 4]","inhibition at 100 µg, 0.1 mg [1, 5]","Activity (%): short-term inhibition (STI) [1, 2]","Activity (%): short-term inhibition (STI) [1, 3]","Activity (%): short-term inhibition (STI) [1, 4]","Activity (%): long-term inhibition (LTI) [1, 5]",short-term effect on antennal pheromone response (in words) [1],"inhibition at 100 µg, 0.1 mg [1]",long-term inhibition (LTI) activity (in words) [1]
"C=CCOc1ccccc1OCC=C [3a{6,6}, 1,2-Diallyloxy benzene]",None,32 ± 16%,16 ± 24%,-27 ± 48%,17 ± 28%,,,,,,,
"C=CCOc1ccc(OCC=C)cc1 [3c{6,6}, 1,4-Diallyloxy benzene]",Trace,-6 ± 10%,45 ± 6%,41 ± 8%,4 ± 6%,,,,,,,
"C=CCOc1ccc(O)cc1 [2c{6}, 4-Allyloxy phenol]",None,19 ± 10%,42 ± 8%,46 ± 10%,24 ± 8%,,,,,,,
"CCCOc1cccc(OCCC)c1 [3b{3,3}, 1,3-Dipropoxy benzene]",None,36 ± 11%,1 ± 26%,-2 ± 34%,45 ± 12%,,,,,,,
"CCOc1cccc(OCC)c1 [3b{2,2}, 1,3-Diethoxy benzene]",Trace,-100 ± 51%,-12 ± 70%,63 ± 65%,39 ± 6%,,,,,,,
"C=CCOc1cccc(OCCCC)c1 [3b{4,6}, 1-allyloxy-3-n-butoxybenzene]",None,-66 ± 43%,-101 ± 76%,8 ± 46%,27 ± 12%,,,,,,,
C=CCc1ccc(OCCC(C)C)c(OC)c1 [iPent eugenol],None,,,,,11 ± 33 (6) %,−98 ± 26 (6) %,−106 ± 24 (6) %,5 ± 8 (6) %,,,
C=CCOc1cccc(O)c1 [2b{6}],None,,,,,24 ± 23 (7) %,28 ± 20 (7) %,5 ± 32 (7) %,1 ± 7 (7) %,,,
"C=CCOc1ccccc1O [2a{6}, 2-Allyloxy phenol]",None,-63 ± 62%,-33 ± 40%,-31 ± 71%,16 ± 8%,,,,,,,
C=CCc1ccc(OCCCC)c(OC)c1 [Bu eugenol],None,,,,,39 ± 17 (6) %,−68 ± 29 (6) %,−116 ± 24 (6) %,7 ± 4 (6) %,,,
"CC(C)CCOc1ccccc1O [2a{5}, 2-(3-Methyl-butyloxy) phenol]",None,22 ± 8%,-44 ± 26%,-37 ± 33%,6 ± 6%,,,,,slightly agonistic,,
"CCCOc1cccc(O)c1 [2b{3}, 3-Propoxy phenol]",None,-6 ± 14%,36 ± 19%,65 ± 14%,8 ± 6%,,,,,,,
"CC(C)CCOc1cccc(OCCC(C)C)c1 [3b{5,5}, 1,3-Di-(3-methyl-butyloxy) benzene]",None,41 ± 13%,-38 ± 41%,-51 ± 51%,9 ± 9%,,,,,,,
"CCCCOc1cccc(OCCCC)c1 [3b{4,4}, 1,3-Dibutoxy benzene]",None,4 ± 45%,-72 ± 91%,-42 ± 93%,8 ± 9%,,,,,,,
"C=CCc1ccc(O)c(OC)c1 [eugenol, 2-methoxy-4-(2-propenyl) phenol, reference compound]",None,,,,,,,,,,14 ± 10%,
"CCCCOc1ccc(O)cc1 [2c{4}, 4-Butoxy phenol]",None,12 ± 37%,38 ± 11%,-122 ± 84%,26 ± 13%,,,,,short-term enhancements,,
"C=CCOc1cccc(OCCC)c1 [3b{3,6}, 1-allyloxy-3-propoxybenzene]",None,-85 ± 30%,-85 ± 80%,-96 ± 98%,48 ± 7%,,,,,,,most active long-term inhibitor
COc1ccccc1O [2a{1}],None,,,,,26 ± 14 (13)^e %,−27 ± 24 (13) %,9 ± 11 (13) %,−13 ± 9 (13) %,,,
"CC(C)CCOc1cccc(O)c1 [2b{5}, 3-(3-Methyl-butyloxy) phenol]",None,-87 ± 63%,-111 ± 78%,-9 ± 58%,4 ± 7%,,,,,,,
